SMILES strings stand for the structures. Where only a bound is given, the exact number is not on record here.

For this assay, the target named is T1, SHP2 protein (Homo sapiens, UniProt Q06124).
T1 sequence (Q06124 1-593): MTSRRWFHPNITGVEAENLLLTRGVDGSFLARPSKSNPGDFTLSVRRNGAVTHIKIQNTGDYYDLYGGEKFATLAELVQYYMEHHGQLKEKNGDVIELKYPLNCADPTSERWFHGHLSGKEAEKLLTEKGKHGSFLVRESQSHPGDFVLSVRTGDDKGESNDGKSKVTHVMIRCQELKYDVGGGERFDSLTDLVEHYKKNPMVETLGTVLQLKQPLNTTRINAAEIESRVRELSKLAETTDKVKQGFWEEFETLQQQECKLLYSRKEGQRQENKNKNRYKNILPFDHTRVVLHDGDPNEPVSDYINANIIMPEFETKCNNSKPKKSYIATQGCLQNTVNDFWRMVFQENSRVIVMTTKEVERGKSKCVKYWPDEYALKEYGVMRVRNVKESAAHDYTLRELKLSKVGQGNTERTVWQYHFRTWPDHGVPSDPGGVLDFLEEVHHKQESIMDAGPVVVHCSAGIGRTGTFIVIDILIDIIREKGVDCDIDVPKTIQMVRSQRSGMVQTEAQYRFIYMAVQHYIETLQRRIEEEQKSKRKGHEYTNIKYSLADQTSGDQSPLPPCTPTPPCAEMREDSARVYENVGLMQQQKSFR
In words: Degradation activity on SHP2 protein in MV-411 cells (Western blot, DC50). Format: cell-based. Further details: endogenous in cells. Particulars: MV411 cells, 24 hours, read-out: Degradation activity for differenct cell lines MV411 (DC50). As for the experimental part: • MV-411 cell line (COBIER, CBP-60522) • FBS (GEMINI, Cat. No. 900-108) • 0.01M PBS (Biosharp, Cat. No. 162262) • IMDM (Hyclone, Cat. No. SH30228.01) • Penicillin-Streptomycin (Gibco, Cat. No. 15140122) • DMSO (Sigma, Cat. No. D5879) • Centrifuge Tube, 15 ml (Excell Bio, Cat. No. CS015-0001) • Cell Culture Dish, (WHB, Cat. No. CS016-0128) • 12-well cell culture cluster (Corning, Cat. No. 3513) • RIPA lysate buffer (Thermo, Cat. No. 89900) • Protein Loding Buffer (Beyotime, Cat. No. P0015L) • BCA Protein Assay Kit (EpiZyme, Cat. No. ZJ102) • SDS-PAGE Fast Preparation Kit (EpiZyme, Cat. No. PG112) • Anti-GAPDH (14C10) Rabbit mAb (CST, Cat. No. 2118L) • Anti-SHP2 rabbit mAb (CST, Cat. No. 37525) • Peroxidase Affinipure (HRP) Goat Anti-Rabbit IgG (Zen Bioscience, Cat. No. 511203) • TBST (Biosharp, Cat. No. BL601A) • ECL chemiluminescence kit (4A Biotech, Cat. No. 4AW011-200)
• (1) Cell culture medium: IMIDM medium+10% FBS+1% Pen Strep; • (2) PBS buffer: PBS powder was dissolved in 2 L of ultrapure water and sterilized; • (3) Cell lysate: RIPA lysate buffer is added with protease inhibitors at a ratio of 1:1000 before use.
(1) MV-411 cells were cultured in the cell culture medium, and then well-growing cells were selected and inoculated in a 12-well plate, with 1 mL/well and 1×10^6 cells/well. The plate was incubated overnight in a 5% CO2 cell incubator at 37° C.
(2) 10 mM storage solution of each drug was prepared using dimethylsulfoxide (DMSO). The stock solution was diluted gradually with DMSO before use, and then 1 μL of the compound solution was added to the cell culture well (to ensure that the DMSO concentration in the culture system was […]), so that the final drug concentration is 100 nM, 10 nM, 3 nM, 1 nM, 0.3 nM, and 0.1 nM. Two wells were set for each concentration. The plate was gently shaken and mixed. Additionally, negative control wells (containing an equal amount of DMSO) and positive control wells were included.
(3) After 24 hours of cultivation, the cells were lysed using RIPA cell lysate, and the proteins were extracted. The protein concentration was measured using a BCA assay kit. 5× concentrated protein buffer was loaded, heated at 100° C. for 5 min, and then the sample was stored at −20° C.
(4) For each well, 30 μg of protein was loaded to polyacrylamide gel for electrophoresis.
(5) The protein was transferred from polyacrylamide gel to PVDF membrane, and sealed at room temperature with 5% skimmed milk for 1 h, which was then incubated with the primary antibodies (Anti-SHP2 rabbit mAb and Anti-GAPDH rabbit mAb) at 4° C. overnight. The membrane was washed three times with TBST solution, 10 minutes for each time. After that, the membrane was incubated with the secondary antibodies (horseradish peroxidase labeled goat anti-rabbit IgG) at room temperature for 2 h, and then washed three times with TBST solution, 10 minutes for each time, followed by exposure.
(6) The images were analyzed with Image J grayscale, and the degradation ratio of protein bands in the test group was calculated, based on the negative control group (DMSO) (100%).
(7) Using the Dose-response-inhibition equation in the data processing software GraphPad Prism 8, the DC50 value was obtained (which represents the drug concentration corresponding to 50% degradation of the target protein).
Finally, ECL detection solution was added for color development, and photos were taken with an automatic chemiluminescence instrument, so as to collect images and analyze them.
(In western blotting, separated proteins are transferred to a membrane and probed.)
In the case of `Cc1ncsc1-c1ccc([C@H](C)NC(=O)[C@@H]2C[C@@H](O)CN2C(=O)[C@@H](NC(=O)COCCOCCOCCOCC(=O)Nc2cccc(Sc3cnc(N4CCC(C)(N)CC4)cn3)c2)C(C)(C)C)cc1` [Compound 12], the DC50 – broadly, the midpoint of the concentration-degradation curve – is under 100 nM.

Regarding `CC1(CN)CCN(c2cnc(Sc3cccc(NC(=O)CCC(=O)N4CCN(CCCCCCCCC(=O)Nc5cccc6c5CN(C5CCC(=O)NC5=O)C6=O)CC4)c3Cl)cn2)CC1` (stereo not shown) [Compound 13], the 50% degradation concentration (DC50) was under 100 nM.

For the compound `CC1(CN)CCN(c2cnc(Sc3cccc(NC(=O)CCC(=O)N4CCN(CCCCCCCCC(=O)Nc5ccc6c(c5)CN(C5CCC(=O)NC5=O)C6=O)CC4)c3Cl)cn2)CC1` (stereo not shown) [Compound 14], the DC50 was under 100 nM.

As to `CC1(CN)CCN(c2cnc(Sc3cccc(NC(=O)CCC(=O)N4CCN(CCCCCCCCC(=O)NCc5ccc6c(c5)CN(C5CCC(=O)NC5=O)C6=O)CC4)c3Cl)cn2)CC1` (stereo not shown) [Compound 15, 9-(4-(4-((3-((5-(4-(aminomethyl)-4-methylpyridin-1-yl)pyrazin-2-yl)thio)-2-chlorophenyl)amino)-4-oxobutyryl)piperazin-1-yl)-N-((2-(2,6-dioxopiperidin-3-yl)-1-oxoisoindol-5-yl)methyl)nonanamide], the DC50 is under 100 nM.

For the compound `CC1(CN)CCN(c2cnc(Sc3cccc(NC(=O)CCC(=O)N4CCN(CCCCCCCCC(=O)Nc5ccc6c(c5)C(=O)N(C5CCC(=O)NC5=O)C6)CC4)c3Cl)cn2)CC1` (stereo not shown) [Compound 16], the DC50 was under 100 nM.

As to `CC1(N)CCN(c2cnc(Sc3cccc(NC(=O)COCCOCCOCCOCC(=O)Nc4cccc5c4CN(C4CCC(=O)NC4=O)C5=O)c3)cn2)CC1` (stereo not shown) [Compound 17], the DC50 was over 1000 nM.

`CC1(N)CCN(c2cnc(Sc3cccc(NC(=O)COCCOCCOCCOCC(=O)Nc4ccc5c(c4)CN(C4CCC(=O)NC4=O)C5=O)c3)cn2)CC1` (stereo not shown) [Compound 18]: the DC50 is over 1000 nM.

Consider `CC1(N)CCN(c2cnc(Sc3cccc(NC(=O)CCC(=O)NCCOCCOCC(=O)NCc4ccc5c(c4)CN(C4CCC(=O)NC4=O)C5=O)c3)cn2)CC1` (stereo not shown) [Compound 19], for which the DC50 was over 1000 nM.

As to `Cc1nc2cccc(NC(=O)COCCOCCNC(=O)CCC(=O)Nc3cccc(Sc4cnc(N5CCC(C)(N)CC5)cn4)c3)c2c(=O)n1C1CCC(=O)NC1=O` (stereo not shown) [Compound 20], the DC50 is over 1000 nM.

Regarding `CC1(N)CCN(c2cnc(Sc3cccc(NC(=O)CCC(=O)NCCOCCOCCOCC(=O)NCc4ccc5c(c4)CN(C4CCC(=O)NC4=O)C5=O)c3)cn2)CC1` (stereo not shown) [Compound 21], the half-maximal degradation concentration (DC50) was over 1000 nM.

Regarding `CC1(N)CCN(c2cnc(Sc3cccc(NC(=O)CCC(=O)NCCOCCOCCOCC(=O)Nc4ccc5c(c4)C(=O)N(C4CCC(=O)NC4=O)C5)c3)cn2)CC1` (stereo not shown) [Compound 22], the DC50 was over 1000 nM.

Turning to `CC1(N)CCN(c2cnc(Sc3cccc(NC(=O)[C@H]4CCC[C@@H]4C(=O)N4CCN(CCCCCCCCC(=O)Nc5ccc6c(c5)C(=O)N(C5CCC(=O)NC5=O)C6)CC4)c3)cn2)CC1` (stereo partly shown) [Compound 24], the DC50 is over 1000 nM.

As for `CC1(N)CCN(c2cnc(Sc3cccc(NC(=O)[C@H]4CCC[C@@H]4C(=O)N4CCN(CCCCCCCCC(=O)NCc5ccc6c(c5)CN(C5CCC(=O)NC5=O)C6=O)CC4)c3)cn2)CC1` (stereo partly shown) [Compound 25], the DC50 is over 1000 nM.

`CC1(N)CCN(c2cnc(Sc3cccc(NC(=O)CCC(=O)N4CC5(CN(CCCCCCCC(=O)Nc6ccc7c(c6)C(=O)N(C6CCC(=O)NC6=O)C7)C5)C4)c3)cn2)CC1` (stereo not shown) [Compound 26]: the DC50 is over 1000 nM.

Turning to `CC1(N)CCN(c2cnc(Sc3cccc(NC(=O)CCC(=O)N4CCN(CCCCCCCCC(=O)NCc5ccc6c(c5)CN(C5CCC(=O)NC5=O)C6=O)CC4)c3)cn2)CC1` (stereo not shown) [Compound 27], the DC50 was under 100 nM.

As for `Cc1ncsc1-c1ccc([C@H](C)NC(=O)[C@@H]2C[C@@H](O)CN2C(=O)[C@@H](NC(=O)CCCCCCCCN2CCN(C(=O)[C@H]3CCC[C@@H]3C(=O)Nc3cccc(Sc4cnc(N5CCC(C)(N)CC5)cn4)c3)CC2)C(C)(C)C)cc1` [Compound 28], the DC50 was under 100 nM.

As for `CC1(N)CCN(c2cnc(Sc3cccc(NC(=O)CCC(=O)NCCOCCOCC(=O)Nc4cccc5c4CN(C4CCC(=O)NC4=O)C5=O)c3)cn2)CC1` (stereo not shown) [Compound 29], the DC50 is over 1000 nM.

Regarding `CC1(N)CCN(c2cnc(Sc3cccc(NC(=O)CCC(=O)NCCOCCOCC(=O)Nc4ccc5c(c4)CN(C4CCC(=O)NC4=O)C5=O)c3)cn2)CC1` (stereo not shown) [Compound 30], the DC50 was over 1000 nM.

As for `CC1(N)CCN(c2cnc(Sc3cccc(NC(=O)CCC(=O)N4CC5(CN(CCCCCCCC(=O)NCc6ccc7c(c6)CN(C6CCC(=O)NC6=O)C7=O)C5)C4)c3)cn2)CC1` (stereo not shown) [Compound 31], the DC50 is over 1000 nM.

Regarding `Cc1ncsc1-c1ccc([C@H](C)NC(=O)[C@@H]2C[C@@H](O)CN2C(=O)[C@@H](NC(=O)CCCCCCCCN2CCN(C(=O)CCC(=O)Nc3cccc(Sc4cnc(N5CCC(C)(N)CC5)cn4)c3)CC2)C(C)(C)C)cc1` [Compound 34], the DC50 is under 100 nM.

Turning to `Cc1nc2cccc(NC(=O)CCCCCCCCN3CCN(C(=O)CCC(=O)Nc4cccc(Sc5cnc(N6CCC(C)(N)CC6)cn5)c4)CC3)c2c(=O)n1C1CCC(=O)NC1=O` (stereo not shown) [Compound 35], the DC50 is over 1000 nM.

As for `Cc1ncsc1-c1ccc([C@H](C)NC(=O)[C@@H]2C[C@@H](O)CN2C(=O)[C@@H](NC(=O)CCCCCCCCCCN2CCC(C(=O)Nc3cccc(Sc4cnc(N5CCC(C)(N)CC5)cn4)c3)CC2)C(C)(C)C)cc1` [Compound 36], the DC50 was over 1000 nM.

As to `CC1(N)CCN(c2cnc(Sc3cccc(NC(=O)C4CCN(CCCCCCCCCCC(=O)NCc5ccc6c(c5)CN(C5CCC(=O)NC5=O)C6=O)CC4)c3)cn2)CC1` (stereo not shown) [Compound 37], the DC50 is over 1000 nM.

In the case of `CC1(N)CCN(c2cnc(Sc3cccc(NC(=O)[C@@H]4C[C@H]4C(=O)N4CC5(CN(CCCCCCCC(=O)NCc6ccc7c(c6)CN(C6CCC(=O)NC6=O)C7=O)C5)C4)c3)cn2)CC1` (stereo partly shown) [Compound 38], the DC50 was under 100 nM.

Regarding `Cc1ncsc1-c1ccc([C@H](C)NC(=O)[C@@H]2C[C@@H](O)CN2C(=O)[C@@H](NC(=O)CCCCCCCN2CC3(C2)CN(C(=O)[C@@H]2C[C@H]2C(=O)Nc2cccc(Sc4cnc(N5CCC(C)(N)CC5)cn4)c2)C3)C(C)(C)C)cc1` [Compound 39], the DC50 was under 100 nM.

Regarding `CC1(N)CCN(c2cnc(Sc3cccc(NC(=O)CCCCCCCCCCC(=O)NCc4ccc5c(c4)CN(C4CCC(=O)NC4=O)C5=O)c3)cn2)CC1` (stereo not shown) [Compound 40], the DC50 was under 100 nM.

For `CC1(N)CCN(c2cnc(Sc3cccc(NC(=O)CCCCCCCCCCCCC(=O)NCc4ccc5c(c4)CN(C4CCC(=O)NC4=O)C5=O)c3)cn2)CC1` (stereo not shown) [Compound 41], the DC50 was over 1000 nM.

Consider `CC1(N)CCN(c2cnc(Sc3cccc(NC(=O)CCCCCCCCCCCCCCC(=O)NCc4ccc5c(c4)CN(C4CCC(=O)NC4=O)C5=O)c3)cn2)CC1` (stereo not shown) [Compound 42], for which the DC50 was over 1000 nM.

The values above are taken from patent US20240383908A1, “SYNTHESIS AND APPLICATION OF PHOSPHATASE DEGRADER” (HINOVA PHARMACEUTICALS INC., priority 2021, published 2024).
